Key:
Format in all cases: cell-based, human
[1] = system: Mia-PACA, H23 and H358 cells; test: Cell proliferation over 5 days (CellTiter Glow); details: Mia-PACA, H23, H358 vs KRAS WT HT29 or HS-68 and PANC1 cells
Method: (§1) Transfection protocol. The following protocols are reported for 24/48/96 well plate format transfection. Cells should be trypsinized and seeded a day prior transfection Cells were cultured in Dulbecco's Modified Eagle's Medium (DMEM), supplemented with 2 mM glutamine, 1% antibiotics (streptomycin 10,000 μg/mL, penicillin, 10,000 IU/mL) and 10% (w/v) foetal calf serum (FCS), at 37° C. in a humidified atmosphere containing 5% CO2. 96 well plates seeded with 50,000 cells, the day prior transfection, grown to 60-80% confluence and set up to be at around 70% confluence at the day of transfection. Before transfection, cells are washed twice with DMEM (without FBS and pen/strep) (100 μl/well). Cells were then overlaid with 25 μl of complex solution, mixed gently and incubated for 10 min at 37° C.+5% CO2. 50 μl of fresh DMEM (without FBS and Antibiotics) was added and cells were incubated for 2 h at 37° C.+5% CO2 (time of exposure can be adjusted based on sensitivity of the cells). 250 μL of DMEM (containing 10% FCS and 1% antibiotics) were then added without removing the overlay of ADGN peptide/mRNA complexes. Cells were returned to the incubator (37° C., 5% CO2) and analyzed 48 hours to 72 hours post transfection.
(§2) Eight different gRNAs targeting KRAS 34G>T mutant G12C (gRNA34T1, gRNA34T2, gRNA34T3, gRNA34T4, gRNA34T5, gRNA34T6, gRNA34T7 and gRNA34T8) were evaluated on MIA-PACA, H23, H358, H29 and PANC1 cells. Cas9 mRNA (0.1 μg) and gRNA (0.2 μg) were associated with ADGN peptide at molar ratio 20/1 (peptide/nucleic acid). MIA-PACA, H23, H358, PANC1 and HT29 cells were cultured in 48 well plate format and treated with free mRNACas9-gRNA, or ADGN/mRNACas9:gRNA complex. Indel frequencies at the endogenous target sequences was evaluated 72 hours after transfection by either T7E1 method or deep sequencing. Cell proliferation was analyzed over a period of 5 days using CellTiter Glow kits on GlowMax (Promega).

[2] = system: KRAS 34G>T mutant G12C; test: Indel frequencies at the endogenous target sequences (T7E1 / deep sequencing) after ADGN/Cas9 mRNA/gRNA transfection; details: for indel frequencies: deep sequencing, 72 hours after transfection, Cas9 mRNA 0.1 μg, gRNA 0.2 μg; for indel editing and disruption of G12C mutant KRAS (FIG. 3A): Mia-PACA, H23, H358 vs HT29 and PANC1 cells
Method: (§3) Complex formation with mRNA:gRNA: ADGN peptide/mRNA/gRNA particles were prepared at a 20:1:1 molar ratio. ADGN/Cas9mRNA/sgRNA complexes were prepared at a 20/1/1 molar ratio with 0.5 μg mRNA: 1.5 μg sgRNA and 5% Glucose or DMEM (example for 96 well plates). […] Premixed Cas9 mRNA/gRNA were prepared in sterile water at room temperature in a glass vial (1-4 ml). ADGN-peptide solution was added dropwise (1 drop/sec) under magnetic agitation at 400 rpm to obtain a 1:2 ratio, and incubated for 30 min at room temperature or 37° C. Just before transfection, 150 μl Glucose or DMEM was added and the solution was mixed under magnetic agitation at 400 rpm for 1 minute. Then the solution was incubated for 5 min at 37° C. Then the complexes was ready for cell transfection or IV administration. Prior to IV administration, complexes were diluted in sucrose 5% solution.
as §1, §2
(§4) In order to confirm the specificity of sgRNAs targeting G12V, G12C or G12D KRAS mutation, gRNA35T3 targeting G12V, gRNA34T6 targeting G12C, and gRNA35A5 targeting G12D were evaluated on a large panel of cancer cells harboring different KRAS mutations including SW403, SW480, PANC1, PK-45H, PK-1, MIA-PACA, H23, H358, HT-29, HS-68 and LS513. Cas9 mRNA (0.2 μg) and gRNA (0.4 μg) were associated with ADGN peptide at molar ratio 20/1 (peptide/nucleic acid). Cells were cultured in 48 well plate format and treated with free mRNACas9-gRNA, or ADGN/mRNACas9:gRNA complex. Indel frequencies at the endogenous target sequences was evaluated 72 hours after transfection by either T7E1 method and cell proliferation was analyzed over a period of 5 days using CellTiter Glow kits on GlowMax (Promega).

[3] = system: SW403 and SW480 cells; test: Cell proliferation over 5 days (CellTiter Glow); details: SW480 and SW403 cells vs HT29 cells harboring KRAS WT
Method: as §1
(§5) Nine different gRNAs targeting KRAS 35G>T mutant G12V (gRNA35T1, gRNA35T2, gRNA35T3, gRNA35T4, gRNA35T5, gRNA35T6, gRNA35T7, gRNA35T8 and gRNA35T9 (see FIG. 18)) were evaluated on SW403 and SW480 cancer cells harboring G12V KRAS mutation. Cas9 mRNA (0.15 μg) and gRNA (0.2 μg) were associated with ADGN-peptides as reported in experimental procedure. SW403, SW480 and HT-29 cells were cultured in 48 well plate format and treated with free mRNACas9-gRNA, or ADGN-100/mRNACas9:gRNA complex. Indel frequencies at the endogenous target sequences was evaluated 72 hours after transfection by either T7E1 method and by deep sequencing. Cell proliferation was analyzed over a period of 5 days using CellTiter Glow kits on GlowMax (Promega).

[4] = system: KRAS 35G>T mutant G12V; test: Indel frequencies at the endogenous target sequences (T7E1 / deep sequencing) after ADGN/Cas9 mRNA/gRNA transfection; details: for indel editing and disruption of G12V mutant KRAS (FIG. 1A): SW403, SW480 vs wild type KRAS HT29 cells, T7E1; for indel frequencies: deep sequencing, 72 hours after transfection, Cas9 mRNA 0.15 μg, gRNA 0.2 μg, ADGN-100
Method: as §3, §1, §5, §4

[5] = system: wild type KRAS; test: as above; details: deep sequencing, 72 hours after transfection, Cas9 mRNA 0.1 μg, gRNA 0.2 μg
Method: as §3, §1, §5
(§6) Nine different gRNAs targeting KRAS 35G>A mutant G12D (gRNA35A1, gRNA35A2, gRNA35A3, gRNA35A4, gRNA35A5, gRNA35A6; gRNA35A7, gRNA35A8, gRNA35A9) were evaluated on LS513, Panc1, PK-45H, and PK1 cancer cells harboring G12D KRAS mutation. Cas9 mRNA (0.1 μg) and gRNA (0.2 μg) were associated with ADGN-peptide at molar ratio 20/1 (peptide/nucleic acid). LS513, Panc1, PK-45H, PK1, HS-68 and HT-29 cells were cultured in 48 well plate format and treated with free mRNACas9-gRNA, or ADGN/mRNACas9:gRNA complex. Indel frequencies at the endogenous target sequences was evaluated 72 hours after transfection by either T7E1 method or deep sequencing. Cell proliferation was analyzed over a period of 5 days using CellTiter Glow kits on GlowMax (Promega).

[6] = system: PANC1, PK1, LS513 and PK-45H cells; test: Cell proliferation over 5 days (CellTiter Glow); details: PANC1, PK1, LS513, PK-45H vs HT29 or HS-68 cells harboring KRAS WT
Method: as §1, §6

[7] = system: KRAS 35G>A mutant G12D; test: Indel frequencies at the endogenous target sequences (T7E1 / deep sequencing) after ADGN/Cas9 mRNA/gRNA transfection; details: for disruption of G12D mutant KRAS (FIG. 2A): G12D cancer cells vs wild type KRAS cells (HT29 or HS-68); for indel frequencies: deep sequencing, 72 hours after transfection, Cas9 mRNA 0.1 μg, gRNA 0.2 μg
Method: as §3, §1, §6, §4

[8] = SW403 cells (heterozygous 35G>T)

Sequence	inhibition of proliferation or survival (FIG. 3B) [1]	indel frequencies ([2]; H23 cells) [%]	indel frequencies ([2]; H358 cells) [%]	indel frequencies ([2]; Mia-PACA cells) [%]	indel editing and disruption of G12C mutant KRAS (FIG. 3A) [2]	inhibition of proliferation or survival (FIG. 1B) [3]	indel editing and disruption of G12V mutant KRAS (FIG. 1A) [4]	indel frequencies [4, 8] [%]	indel frequencies ([4]; SW480 cells (homozygous 35G>T)) [%]	further results
TTG TGG TAG TTG GAG CTT G (guide TTGTGGTAGTTGGAGCTTG; sgRNA, chemical modifications not given here, further chemistry not given here) [gRNA34T5, sgRNA target KRAS G12C mutation (34G>T); PAM TGG]	specifically inhibit proliferation or survival of Mia-PACA, H23 and H358 cells	68	67	75	induced indel editing and efficient disruption of G12C mutant KRAS					
TGGTAGTTGGAGCTGTTGGCGT (guide TGGTAGTTGGAGCTGTTGGCGT; chemistry not given here) [gRNA35T1, sgRNA target KRAS G12V mutation (c.35G>T); PAM AGG]						specifically inhibit proliferation or survival of SW480 and SW403 cells	specifically induced indel editing and efficient disruption	35	57	
GTT GGA GCT TGT GGC GT (guide GTTGGAGCTTGTGGCGT; chemistry not given here) [gRNA34T3, sgRNA target KRAS G12C mutation (34G>T); PAM AGG]	specifically inhibit proliferation or survival of Mia-PACA, H23 and H358 cells	48	37	51	induced indel editing and efficient disruption of G12C mutant KRAS					
CTTGTGGTAGTTGGAGCTTG (guide CTTGTGGTAGTTGGAGCTTG; chemistry not given here) [gRNA34T1, sgRNA target KRAS G12C mutation (34G>T); PAM TGG]	specifically inhibit proliferation or survival of Mia-PACA, H23 and H358 cells	41	29	34	induced indel editing and efficient disruption of G12C mutant KRAS					
GTT GGA GCT GTT GGC GT (guide GTTGGAGCTGTTGGCGT; chemistry not given here) [gRNA35T6, sgRNA target KRAS G12V mutation (c.35G>T); PAM AGG]						specifically inhibit proliferation or survival of SW480 and SW403 cells	specifically induced indel editing and efficient disruption	18	39	
GTAGTTGGAGCTGATGGCGT (guide GTAGTTGGAGCTGATGGCGT; chemistry not given here) [gRNA35A7, sgRNA target KRAS G12D mutation (35G>A); PAM AGG]										indel frequencies ([5]; HS68 cells (WT KRAS)): 4 ± 0.4%; indel frequencies ([5]; HT-29 cells (WT KRAS)): 7 ± 2%; inhibition of proliferation or survival (FIG. 2B) [6]: specifically inhibit proliferation or survival of PANC1, PK1, LS513 and PK-45H cells; disruption of G12D mutant KRAS (FIG. 2A) [7]: induced efficient disruption of G12D mutant KRAS; indel frequencies ([7]; LS513 cells): 24 ± 2%; indel frequencies ([7]; PANC1 cells): 47 ± 1%; indel frequencies ([7]; PK1 cells): 31 ± 2%; indel frequencies ([7]; PK-45H cells): 35 ± 0.5%
GGTAGTTGGAGCTGATGGCG (guide GGTAGTTGGAGCTGATGGCG; chemistry not given here) [gRNA35A2, sgRNA target KRAS G12D mutation (35G>A); PAM TAG]										indel frequencies ([5]; HS68 cells (WT KRAS)): 6 ± 2%; indel frequencies ([5]; HT-29 cells (WT KRAS)): 2 ± 1%; inhibition of proliferation or survival (FIG. 2B) [6]: specifically inhibit proliferation or survival of PANC1, PK1, LS513 and PK-45H cells; disruption of G12D mutant KRAS (FIG. 2A) [7]: induced efficient disruption of G12D mutant KRAS; indel frequencies ([7]; LS513 cells): 31 ± 2%; indel frequencies ([7]; PANC1 cells): 58 ± 4%; indel frequencies ([7]; PK1 cells): 48 ± 2%; indel frequencies ([7]; PK-45H cells): 52 ± 5%
GTAGTTGGAGCTGTTGGCGT (guide GTAGTTGGAGCTGTTGGCGT; chemistry not given here) [gRNA35T8, sgRNA target KRAS G12V mutation (c.35G>T); PAM AGG]						specifically inhibit proliferation or survival of SW480 and SW403 cells	specifically induced indel editing and efficient disruption	40	51	

Source: US20230167437A1, “COMPOSITIONS FOR TREATING CANCER WITH KRAS MUTATIONS AND USES THEREOF” (Aadigen, LLC, priority 2020, published 2023)
